#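 Five concentrations, 48 hours, 96-well plates. GI50 = concentration required for 50% inhibition of growth.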 Activity calls are given as the source filed them. Cut-off read from the data, not from the text of the source: active = GI50 up to about 1.1 µM and inactive = higher.
# How the values were obtained:
# Test in all cases: NCI-60 cell line screen, 48 h
# A498 = test system: A498
# A549 = test system: A549
# CCRF-CEM = test system: CCRF-CEM
# COLO 205 = test system: COLO 205
# EKVX = test system: EKVX
# HCT-116 = test system: HCT-116
# HCT-15 = test system: HCT-15
# K562 = test system: K562
# KM12 = test system: KM12
# LOX IMVI = test system: LOX IMVI
# NCI-H226 = test system: NCI-H226
# NCI-H23 = test system: NCI-H23
# NCI-H460 = test system: NCI-H460
# OVCAR-5 = test system: OVCAR-5
# OVCAR-8 = test system: OVCAR-8
# SF-268 = test system: SF-268
# SF-295 = test system: SF-295
# SK-MEL-28 = test system: SK-MEL-28
# SW-620 = test system: SW-620
# UO-31 = test system: UO-31
SMILES,GI50 (A498),GI50 (A549),GI50 (CCRF-CEM),GI50 (COLO 205),GI50 (EKVX),GI50 (HCT-116),GI50 (HCT-15) [µM],GI50 (K562),GI50 (KM12),GI50 (LOX IMVI),GI50 (NCI-H226),GI50 (NCI-H23),GI50 (NCI-H460),GI50 (OVCAR-5),GI50 (OVCAR-8),GI50 (SF-268),GI50 (SF-295),GI50 (SK-MEL-28),GI50 (SW-620),GI50 (UO-31)
N/C(=C\c1ccc(/C=C(\NC(=O)c2ccccc2)c2nc3c([nH]2)C(=O)c2ccccc2C3=O)cc1)c1nc2c([nH]1)C(=O)c1ccccc1C2=O,13.6 µM (inactive),14.2 µM (inactive),12.3 µM (inactive),14.8 µM (inactive),23.3 µM (inactive),14.5 µM (inactive),13.9,14.9 µM (inactive),13.7 µM (inactive),18.1 µM (inactive),11.5 µM (inactive),14.3 µM (inactive),17.5 µM (inactive),18.9 µM (inactive),15.8 µM (inactive),8.47 µM (inactive),16.5 µM (inactive),16.8 µM (inactive),20.4 µM (inactive),4.84 µM (inactive)
OCCNCN(CNCCO)c1nc(N(CNCCO)CNCCO)nc(N(CNCCO)CNCCO)n1,0.0764 µM (active),0.0711 µM (active),0.04 µM (active),0.0411 µM (active),0.0679 µM (active),,0.0556,0.04 µM (active),0.137 µM (active),0.0916 µM (active),0.0802 µM (active),0.0655 µM (active),0.118 µM (active),0.146 µM (active),0.0755 µM (active),0.0578 µM (active),0.082 µM (active),0.04 µM (active),0.04 µM (active),0.0851 µM (active)
CCCCOc1ccc(OCCCCCCCCCC[N+](C)(C)C)cc1,9.93 µM (inactive),3.55 µM (inactive),1.28 µM (inactive),1.24 µM (inactive),15.5 µM (inactive),2.34 µM (inactive),14.9,2.74 µM (inactive),1.48 µM (inactive),1.53 µM (inactive),4.26 µM (inactive),1.95 µM (inactive),2.54 µM (inactive),4.65 µM (inactive),3.66 µM (inactive),3.13 µM (inactive),6.17 µM (inactive),5.58 µM (inactive),3.66 µM (inactive),8.02 µM (inactive)
COc1cc(/C=N/c2ccccn2)cc(OC)c1OC,> 100 µM (inactive),> 100 µM (inactive),> 100 µM (inactive),> 100 µM (inactive),> 100 µM (inactive),> 100 µM (inactive),> 82.6,> 100 µM (inactive),> 100 µM (inactive),> 100 µM (inactive),> 100 µM (inactive),> 100 µM (inactive),> 100 µM (inactive),> 100 µM (inactive),> 100 µM (inactive),> 100 µM (inactive),> 76.9 µM (inactive),> 86.9 µM (inactive),> 100 µM (inactive),> 100 µM (inactive)
O=C(O[C@@H](/C=C/c1ccccc1)P1(=O)N(Cc2ccccc2)[C@H]2CCCC[C@@H]2N1Cc1ccccc1)c1ccccc1,2.12 µM (inactive),3.61 µM (inactive),3.03 µM (inactive),1.7 µM (inactive),4.12 µM (inactive),3.02 µM (inactive),3.28,3.47 µM (inactive),3.41 µM (inactive),3.54 µM (inactive),2.79 µM (inactive),2.96 µM (inactive),2.01 µM (inactive),3.86 µM (inactive),4.3 µM (inactive),5.5 µM (inactive),3.15 µM (inactive),7.78 µM (inactive),3.69 µM (inactive),3.01 µM (inactive)
COC(=O)C#Cc1cccc(OC)c1OC,45 µM (inactive),37.5 µM (inactive),26.6 µM (inactive),27 µM (inactive),19.5 µM (inactive),33.6 µM (inactive),32.4,21.1 µM (inactive),45.4 µM (inactive),33.7 µM (inactive),43.3 µM (inactive),41.3 µM (inactive),48.1 µM (inactive),22.5 µM (inactive),40.3 µM (inactive),,40.5 µM (inactive),38.9 µM (inactive),47 µM (inactive),20.4 µM (inactive)
CC(=O)OC1COC(Nn2c(=O)[nH]c3ccccc3c2=O)C(OC(C)=O)C1OC(C)=O (stereo not given),> 100 µM (inactive),> 100 µM (inactive),> 100 µM (inactive),> 100 µM (inactive),36.1 µM (inactive),> 100 µM (inactive),> 100,> 100 µM (inactive),39.4 µM (inactive),> 100 µM (inactive),51.9 µM (inactive),> 100 µM (inactive),> 100 µM (inactive),> 100 µM (inactive),86.9 µM (inactive),> 100 µM (inactive),> 100 µM (inactive),> 100 µM (inactive),> 100 µM (inactive),81.1 µM (inactive)
CSc1nc(NC2OCC(O)C(O)C2O)c(N)c(=O)[nH]1 (stereo not given),> 100 µM (inactive),> 100 µM (inactive),> 100 µM (inactive),> 100 µM (inactive),> 100 µM (inactive),> 100 µM (inactive),> 100,> 100 µM (inactive),> 100 µM (inactive),> 100 µM (inactive),> 100 µM (inactive),> 100 µM (inactive),> 100 µM (inactive),> 100 µM (inactive),> 100 µM (inactive),> 100 µM (inactive),> 100 µM (inactive),> 100 µM (inactive),> 100 µM (inactive),> 100 µM (inactive)
COc1cc2c(cc1OC)C(C)N(C)c1c-2c(OC(C)=O)cc2cc(OC)c(OC)cc12 (stereo not given),10.7 µM (inactive),16.9 µM (inactive),31.6 µM (inactive),6.43 µM (inactive),13.2 µM (inactive),13.9 µM (inactive),15,23.4 µM (inactive),14.2 µM (inactive),13.2 µM (inactive),2.33 µM (inactive),15.4 µM (inactive),6.38 µM (inactive),36.4 µM (inactive),9.4 µM (inactive),26.9 µM (inactive),11.8 µM (inactive),19.9 µM (inactive),23.7 µM (inactive),12.1 µM (inactive)
COCCOCC(=O)N(CCn1ccc(NC(c2ccccc2)(c2ccccc2)c2ccccc2)nc1=O)CCn1cnc2nc(N)[nH]c(=O)c21,> 100 µM (inactive),> 100 µM (inactive),> 100 µM (inactive),> 100 µM (inactive),> 100 µM (inactive),> 100 µM (inactive),> 100,> 100 µM (inactive),> 100 µM (inactive),> 100 µM (inactive),> 100 µM (inactive),> 100 µM (inactive),> 100 µM (inactive),> 100 µM (inactive),> 100 µM (inactive),> 100 µM (inactive),> 100 µM (inactive),> 100 µM (inactive),> 100 µM (inactive),> 100 µM (inactive)
C=C1C(=O)OC2C=C(CCC(C)=O)C(C)C(OC(C)=O)CC12 (stereo not given),16.1 µM (inactive),22.2 µM (inactive),2.6 µM (inactive),,12.9 µM (inactive),5.19 µM (inactive),6.11,3.86 µM (inactive),16.1 µM (inactive),1.61 µM (inactive),13.6 µM (inactive),,18.7 µM (inactive),16.1 µM (inactive),16.5 µM (inactive),16.1 µM (inactive),17.7 µM (inactive),8.26 µM (inactive),0.313 µM (active),13.6 µM (inactive)
COc1c2c(cc3c1-c1c(cc4c(c1OC)OCO4)C1OC3C(C)C1C)OCO2.COc1cc2c(c(OC)c1OC)-c1c(cc3c(c1OC)OCO3)C1OC2C(C)C1C (stereo not given),> 100 µM (inactive),97.5 µM (inactive),40.4 µM (inactive),> 100 µM (inactive),87.3 µM (inactive),87.3 µM (inactive),67.9,72.8 µM (inactive),95.1 µM (inactive),68.4 µM (inactive),> 100 µM (inactive),> 100 µM (inactive),55.3 µM (inactive),> 100 µM (inactive),57 µM (inactive),> 100 µM (inactive),87.1 µM (inactive),> 100 µM (inactive),> 100 µM (inactive),94.8 µM (inactive)
O=c1c(Cc2c(O)oc3cc(O)ccc3c2=O)c(O)oc2cc(O)ccc12,> 100 µM (inactive),> 100 µM (inactive),56 µM (inactive),> 100 µM (inactive),> 100 µM (inactive),> 100 µM (inactive),> 100,64.9 µM (inactive),,> 100 µM (inactive),> 100 µM (inactive),> 100 µM (inactive),> 100 µM (inactive),> 100 µM (inactive),> 100 µM (inactive),> 100 µM (inactive),> 100 µM (inactive),> 100 µM (inactive),> 100 µM (inactive),31.9 µM (inactive)
CC1(C)C(O)C[C@@H](O)[C@@]2(C)C1CC[C@]1(C)C2C[C@@H](O)[C@@H]2C([C@@]3(C)CC[C@@H](C(C)(C)O)O3)CCC21C (stereo not given in full),17.3 µM (inactive),18.9 µM (inactive),17.8 µM (inactive),16.4 µM (inactive),24.9 µM (inactive),17 µM (inactive),12.6,35.2 µM (inactive),15.9 µM (inactive),11 µM (inactive),19.5 µM (inactive),17.4 µM (inactive),18.9 µM (inactive),16.1 µM (inactive),18.7 µM (inactive),17.2 µM (inactive),15.7 µM (inactive),13.8 µM (inactive),16.5 µM (inactive),17.5 µM (inactive)
